# Experimental data reported in patent publication US4514330A, “Carbon-7-substituted atinomycin D analogue” (Trustees of Boston University, priority 1983, dated 1985).
# Where two headings read alike, the source gives them in different places.
# Experiments:
# [1] = test system: human lymphoblastic leukemic cells (CCRF-CEM); test: In vitro growth-inhibitory activity against human lymphoblastic leukemic cells (CCRF-CEM) in log phase; assay type: cell-based; conditions: for IC50: Homo sapiens
# DNA [2] = test: Thermal denaturation of DNA (ΔTm), stabilization of DNA helical structure on drug binding; parameters: species or system calf thymus; conditions: for Tm (ΔTm = Tm of DNA-drug complex minus Tm of DNA): drug 1.4 × 10^-4 M, DNA (P) 1.4 × 10^-3 M, 0.01 M phosphate buffer pH 7.0, EDTA, 5% dimethyl sulfoxide
# Method: Thermal denaturation studies were carried out according to the procedure described in J. Med. Chem., Vol. 24, p. 1052 (1981). The ΔTm values in Table II give a measure of stabilization of DNA helical structure as a consequence of drug binding.
# ^a ΔTm = m of DNAdrug complex minus m of DNA.
# Concentraiton of drug, 1.4 × 10^-4 M; of DNA (P), 1.4 ×
# 10^-3 M in 0.01 M phosphate buffer (pH 7.0), 5 × 10^-3 M in
# EDTA and 5% dimethyl sulfoxide.
# ^d Highest dose tested. These values are derived at high temperatur
# (67°-75° C.) and may not always correlate with the results
# of other DNA-binding studies (e.g., absorptiometric or circular dichroic).
# Melting points were obtained with a Thomas-Hoover melting point apparatus at a heating rate of 2° C./min. Column chromatography was accomplished with silica gel powder (Baker No. 3405, 60-20 mesh) or acid alumina (Woelm grade 1). Limited gel-filtration work was done on Sephadex LH-20, particle size 25-100 μm (Pharmacia Fine Chemicals). Thin-layer chromatography was performed on silica gel plates (E. M. Laboratories, Inc.). Solvent systems used were (A) butanol-formic acid-H2 O (75:13:12), (B) EtOAc-acetone (3:1), and (C) Cifferri, the organic phase of the mixture EtOAc-MeOH-H2 O (20:1:20). High-performance liquid chromatography was carried out on a Varian Model 5020 gradient liquid chromatograph equipped with CD-111L chromatography data system and fitted with Varian reversed-phase C18 column with isocratic solvent systems, CH3 -CN-5 mM NH4 OAc buffer, pH 6.4 (68:32 or 62:38), pressure 80-140 atm, flow rate 1.5 mL/min, with UV-visible variable and fixed wavelength dual detectors at 254 and 466 nm. Spectra were determined on the following instruments: IR spectra were obtained with a Perkin-Elmer Model 237 Infra Cord with KBr micropellets or chloroform solutions; UV-visible spectra were obtained on a Gilford 250 spectrophotometer, which, with the addition of a base-line reference compensator (Analog Multiplexer 6064) and thermoprogrammer, auto four cell programmer and thermoelectric cell holder 2577, was used to obtain thermal denaturation curves; NMR spectra were obtained on a JOEL FQ-90-90MHZ spectrometer equipped with Fourier transform; and CD spectra were obtained on a Cary 61 spectrophotometer. All elemental analyses were within ±0.4% of the theoretical values. Actinomycin D, batch no. NCS 3053, lot L554651-0-10, was provided by Natural Products Branch, National Cancer Institute, Silver Spring, Md. Calf thymus DNA type 1 was purchased from Sigma Chemical Co.
# DNA [3] = conditions: known analogues; cited from earlier work
# P-388 leukemia = test: In vivo antitumor activity against P-388 lymphocytic leukemia in CDF1 mice; conditions: for % ILS (percent increase in life span) / MST (median survival time) / cure (over 55 day survivors): days 1, 5, 9; for minimal effective dose: Mus musculus, P388, ip, read-out: MED (minimum effective dose, 40% increase in life span over control)
# Method: Studies on in vivo activity of AMD and AMD analogues were carried out with P-388 lymphocytic leukemia in CDF1 hybrid mice. The drugs were administered either daily for 4 successive days (qd 1-4) or on days 1, 5 and 9 (q4d 1, 5, 9) beginning 1 day after tumor implantation.
# ^a Male CDF1 (18-23 g) mice were inoculated intraperitoneally
# (ip) with 10^6 P388 cells on day 0. Drugs were administered, also ip,
# in 10% dimethyl sulfoxidesaline on days 1, 5 and 9. Test solutions were
# kept at 0-4° C., protected from light, and the stability and
# homogeneity were checked periodically by TLC and HPLC.
# ^b MST = median survival time.
# ^c % ILS = percent increase in life span.
# ^d Over 55 day survivors. Average of three experiments. The
# ^a Drugs administed ip once daily either for 4 successive days (qd
# 1-4) or on days 1, 5 and 9 (q4d 1, 5 9), starting 1 day after tumor
# ^b MED (minimum effective dose) is the dose (milligrams/kilogram)
# providing an increase in life span of 40% over control in P388
# normal CDF1 male mice = test: Maximum tolerated dose (LD10) in normal, tumor-free CDF1 male mice; assay type: in vivo; conditions: for MTD (maximum tolerated dose, lethal for 10% of normal mice; = LD10): deaths during 21 days
# Method: ^c MTD (maximum tolerated dose) is the lethal dose
# (milligrams/kilogram) for 10% normal CDF1 male mice (18-23 g);
# were calculated from a plot of log dose vs. percent mortality. Average of
# two to three experiments.
# Biological Experiments. Determination of LD10 Values. Tumor-free CDF1 male mice weighing 18-23 g were given a broad range of doses of drugs in 10% dimethyl sulfoxide-saline on either days 1, 5 and 9 or on 4 successive days. Drugs were administered intraperitoneally (ip).
# The maximum tolerated doses of AMD and analogues that caused deaths in only 10% of the tested animals in 21 days were recorded as MTD. The results are an average of two experiments in each. The MTD values obtained following schedules q4d 1, 5, 9 (three injections) and qd 1-4 (four injections) are recorded in Table IV. These doses are the same as LD10 (lethal dose of 10% of tumor-free animals in 21 days).
# DNA [4] = test: DNA-binding mode, covalent and noncovalent (statements)
# calf thymus DNA = test: DNA binding by visible absorption and CD spectra of DNA (P)-drug complex; conditions: mole ratio DNA (P)/analogue = 10:1; 3b, 4b and 5b compared; 1.0×10^-5 M, pH 7
# Text: In FIG. 1, absorption (top) and circular dichroism (bottom) spectra in 0.01 M phosphate buffer (pH7) containing EDTA (10^-5 M) and Me2 SO (5%): 3b (...), 4b (---), 5b (--). Concentration of drug in each case was 1.0×10^-5 M. In this respect, they are almost indistinguishable from the known analogue 7-methoxyactinomycin D (5b), whose structure and physical properties we have previously reported. The absorption spectra of all these analogues in aqueous buffer are also almost superimposable. […] The absorption spectrum of the analogues above 240 nm is mainly due to the electronic configuration of the tricyclic chromophore. The CD spectrum in the same wavelength region is an indicator of peptide conformation in actinomycin analogues, because it is the peptide lactone ring that confers optical activity on the nearly planar chromophore. The nature of the CD spectra (3b, 4b and 5b) asserts that in these analogues there is an identical relationship between the chromophores and peptide lactones. This relationship is very important, because during binding to DNA, AMD and some analogues are known to rely on the cooperative role between the chromophore and the peptide lactones for their highly specific DNA-binding property.
# Any change in the configurations of the peptide lactones on binding to DNA is generally expressed in the CD spectra of the analogue-DNA complexes. […] The changes in the visible absorption spectra of 3b, 4b and 5b and also their CD spectra observed after adding calf thymus DNA [mole ratio of DNA (P)/analogue=10:1] are identical (FIG. 2). In FIG. 2, the absorption (top) and CD spectra of the DNA (P)-drug complex (ratio 10:1). Concentrations, buffer and line types are as in FIG. 1.
# [5] = three injections ip, q4d 1, 5, 9
smiles,measurement,setting,value
CCN(CC)C(=O)c1c2nc3c(C(=O)N(CC)CC)cc(OCC(O)CO)c(C)c3oc-2c(C)c(=O)c1N (stereo not drawn) [Compound 4a],fold less toxic compared to AMD and its analogues,[1],more than 1000 fold
same,Tm (ΔTm = Tm of DNA-drug complex minus Tm of DNA),DNA [2],0 °C
Cc1c2oc3c(C)c(N)cc(C(=O)N[C@@H]4C(=O)N[C@H](C(C)C)C(=O)N5CCC[C@H]5C(=O)N(C)CC(=O)N(C)[C@@H](C(C)C)C(=O)O[C@@H]4C)c3nc-2c(C(=O)N[C@@H]2C(=O)N[C@H](C(C)C)C(=O)N3CCC[C@H]3C(=O)N(C)CC(=O)N(C)[C@@H](C(C)C)C(=O)O[C@@H]2C)c(N)c1=O [7-aminoactinomycin D],"mode of DNA binding, same way as AMD",DNA [3],by intercalation of the chromophore and concomitant hydrogen and hydrophobic interactions of the peptide lactones
CCN(CC)C(=O)c1c2nc3c(C(=O)N(CC)CC)cc(OCC4CO4)c(C)c3oc-2c(C)c(=O)c1N (stereo not drawn) [Compound 3a],fold less toxic compared to AMD and its analogues,[1],more than 1000 fold
same,IC50,[1]; read-out: ID50 (the source's name),9 µg/mL
same,Tm (ΔTm = Tm of DNA-drug complex minus Tm of DNA),DNA [2],0 °C
CCN(CC)C(=O)c1c2nc3c(C(=O)N(CC)CC)cc(O)c(C)c3oc-2c(C)c(=O)c1N [Compound 2a],Tm (ΔTm = Tm of DNA-drug complex minus Tm of DNA),DNA [2],0 °C
"Cc1c2oc3c(C)c(O)cc(C(=O)N[C@@H]4C(=O)N[C@H](C(C)C)C(=O)N5CCC[C@H]5C(=O)N(C)CC(=O)N(C)[C@@H](C(C)C)C(=O)O[C@@H]4C)c3nc-2c(C(=O)N[C@@H]2C(=O)N[C@H](C(C)C)C(=O)N3CCC[C@H]3C(=O)N(C)CC(=O)N(C)[C@@H](C(C)C)C(=O)O[C@@H]2C)c(N)c1=O [Compound 2b, 7-hydroxyactinomycin D, reference compound]",% ILS (percent increase in life span),P-388 leukemia; 0.15 mg/kg ip,10%
same,MST (median survival time),P-388 leukemia; 0.15 mg/kg ip,12 days
same,cure (over 55 day survivors),P-388 leukemia; 0.15 mg/kg ip,0/7
same,% ILS (percent increase in life span),P-388 leukemia; 0.30 mg/kg ip,55%
same,MST (median survival time),P-388 leukemia; 0.30 mg/kg ip,17 days
same,cure (over 55 day survivors),P-388 leukemia; 0.30 mg/kg ip,0/7
same,% ILS (percent increase in life span),P-388 leukemia; 0.60 mg/kg ip,89%
same,MST (median survival time),P-388 leukemia; 0.60 mg/kg ip,21 days
same,cure (over 55 day survivors),P-388 leukemia; 0.60 mg/kg ip,0/7
same,% ILS (percent increase in life span),P-388 leukemia; 1.20 mg/kg ip,127%
same,MST (median survival time),P-388 leukemia; 1.20 mg/kg ip,25 days
same,cure (over 55 day survivors),P-388 leukemia; 1.20 mg/kg ip,0/7
same,% ILS (percent increase in life span),P-388 leukemia; 1.80 mg/kg ip,136%
same,MST (median survival time),P-388 leukemia; 1.80 mg/kg ip,26 days
same,cure (over 55 day survivors),P-388 leukemia; 1.80 mg/kg ip,0/7
same,% ILS (percent increase in life span),P-388 leukemia; 3.00 mg/kg ip,37%
same,MST (median survival time),P-388 leukemia; 3.00 mg/kg ip,15 days
same,cure (over 55 day survivors),P-388 leukemia; 3.00 mg/kg ip,0/7
same,minimal effective dose,"P-388 leukemia; four injections ip, qd 1-4",0.2 mg/kg
same,minimal effective dose,P-388 leukemia; [5],0.275 mg/kg
same,therapeutic index: MTD/MED,"P-388 leukemia; four injections ip, qd 1-4",10
same,"activity in respect of % ILS, 1b versus 2b","P-388 leukemia; ip, q4d 1, 5, 9",approximately equiactive
same,dose higher than AMD needed for equiactivity,"P-388 leukemia; ip, q4d 1, 5, 9",> 14 fold
same,therapeutic index: MTD/MED,P-388 leukemia; [5],15
same,IC50,"[1]; final growth medium contained 1% Me2SO, log phase, read-out: ID50 (in vitro growth inhibition, CCRF-CEM)",0.95 µg/mL
same,Tm (ΔTm = Tm of DNA-drug complex minus Tm of DNA),DNA [2],6.7 ± 0.15 °C
same,DNA melting profile / ΔTm character of the DNA complex,"DNA [2]; thermal denaturation, words",sharp and smooth
same,"MTD (maximum tolerated dose, lethal for 10% of normal mice; = LD10)","normal CDF1 male mice; four injections ip, qd 1-4",2.0 milligrams/kilogram
same,MTD dose as multiple of the MTD dose for AMD,"normal CDF1 male mice; q4d 1, 5, 9 schedule",17 fold
same,fold less toxic than AMD,normal CDF1 male mice; qd 1-4 schedule,13 fold
same,"MTD (maximum tolerated dose, lethal for 10% of normal mice; = LD10)",normal CDF1 male mice; [5],4.2 milligrams/kilogram
"CCN(CC)C(=O)c1c2nc3c(C(=O)N(CC)CC)ccc(C)c3oc-2c(C)c(=O)c1N [Compound 1a, reference compound]",DNA-binding related activity,DNA [4],no DNA-binding related activity
same,Tm (ΔTm = Tm of DNA-drug complex minus Tm of DNA),DNA [2],0 °C
"Cc1c2oc3c(C)c([N+](=O)[O-])cc(C(=O)N[C@@H]4C(=O)N[C@H](C(C)C)C(=O)N5CCC[C@H]5C(=O)N(C)CC(=O)N(C)[C@@H](C(C)C)C(=O)O[C@@H]4C)c3nc-2c(C(=O)N[C@@H]2C(=O)N[C@H](C(C)C)C(=O)N3CCC[C@H]3C(=O)N(C)CC(=O)N(C)[C@@H](C(C)C)C(=O)O[C@@H]2C)c(N)c1=O [Compound 7-nitro-, 7-nitro-]","mode of DNA binding, same way as AMD",DNA [3],by intercalation of the chromophore and concomitant hydrogen and hydrophobic interactions of the peptide lactones
"COc1cc(C(=O)N[C@@H]2C(=O)N[C@H](C(C)C)C(=O)N3CCC[C@H]3C(=O)N(C)CC(=O)N(C)[C@@H](C(C)C)C(=O)O[C@@H]2C)c2nc3c(C(=O)N[C@@H]4C(=O)N[C@H](C(C)C)C(=O)N5CCC[C@H]5C(=O)N(C)CC(=O)N(C)[C@@H](C(C)C)C(=O)O[C@@H]4C)c(N)c(=O)c(C)c-3oc2c1C [Compound 5b, 7-methoxyactinomycin D, reference compound]",changes in visible absorption and CD spectra after adding calf thymus DNA,calf thymus DNA,identical
